In general, IC50 refers to the concentration at which inhibition is half-maximal. The inhibition is the relative decrease from the control value, in per cent.

Where two headings read alike, the source gives them in different places.

Results on seven molecules are retold here after publication PMC8245855 (Acta Pharmaceutica Sinica. B, 2021).

The subject of one assay is COX-1. The conditions noted are these: read-out: IC50, COX-1; cited from earlier work.
In assay [1] the test system is 5-LOX. The conditions noted are these: cited from earlier work; for IC50: read-out: IC50, 5-LOX.
Assay [2] deals with human neutrophils or macrophages. The conditions noted are these: cited from earlier work.
Another assay addresses T1, 12-LOX (Homo sapiens, UniProt P18054).
T1 sequence (P18054 1-663): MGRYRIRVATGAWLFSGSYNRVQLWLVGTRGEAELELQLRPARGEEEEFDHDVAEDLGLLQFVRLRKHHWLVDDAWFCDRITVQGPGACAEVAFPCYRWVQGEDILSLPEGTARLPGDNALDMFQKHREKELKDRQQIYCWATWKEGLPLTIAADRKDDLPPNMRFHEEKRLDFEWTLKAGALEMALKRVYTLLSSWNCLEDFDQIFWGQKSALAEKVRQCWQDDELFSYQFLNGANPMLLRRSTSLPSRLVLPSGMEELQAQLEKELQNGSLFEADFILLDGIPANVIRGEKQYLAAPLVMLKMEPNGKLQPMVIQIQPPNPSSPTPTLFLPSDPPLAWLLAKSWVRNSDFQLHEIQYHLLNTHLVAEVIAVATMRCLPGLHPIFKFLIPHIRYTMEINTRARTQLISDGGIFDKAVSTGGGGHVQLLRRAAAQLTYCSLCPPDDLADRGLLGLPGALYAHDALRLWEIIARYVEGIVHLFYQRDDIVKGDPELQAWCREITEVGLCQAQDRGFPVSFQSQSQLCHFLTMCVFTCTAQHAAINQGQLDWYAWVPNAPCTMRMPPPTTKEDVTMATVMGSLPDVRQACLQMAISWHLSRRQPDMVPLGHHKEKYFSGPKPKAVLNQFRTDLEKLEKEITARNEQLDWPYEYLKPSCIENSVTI
The note with it: 10 μmol/L; human neutrophils; cited from earlier work.

The next assay deals with 15-LOX. The note with it: 10 μmol/L; human neutrophils; cited from earlier work.
Assay [3] has as its target T2, 5-LOX (Homo sapiens, UniProt P09917).
T2 sequence (P09917 1-674): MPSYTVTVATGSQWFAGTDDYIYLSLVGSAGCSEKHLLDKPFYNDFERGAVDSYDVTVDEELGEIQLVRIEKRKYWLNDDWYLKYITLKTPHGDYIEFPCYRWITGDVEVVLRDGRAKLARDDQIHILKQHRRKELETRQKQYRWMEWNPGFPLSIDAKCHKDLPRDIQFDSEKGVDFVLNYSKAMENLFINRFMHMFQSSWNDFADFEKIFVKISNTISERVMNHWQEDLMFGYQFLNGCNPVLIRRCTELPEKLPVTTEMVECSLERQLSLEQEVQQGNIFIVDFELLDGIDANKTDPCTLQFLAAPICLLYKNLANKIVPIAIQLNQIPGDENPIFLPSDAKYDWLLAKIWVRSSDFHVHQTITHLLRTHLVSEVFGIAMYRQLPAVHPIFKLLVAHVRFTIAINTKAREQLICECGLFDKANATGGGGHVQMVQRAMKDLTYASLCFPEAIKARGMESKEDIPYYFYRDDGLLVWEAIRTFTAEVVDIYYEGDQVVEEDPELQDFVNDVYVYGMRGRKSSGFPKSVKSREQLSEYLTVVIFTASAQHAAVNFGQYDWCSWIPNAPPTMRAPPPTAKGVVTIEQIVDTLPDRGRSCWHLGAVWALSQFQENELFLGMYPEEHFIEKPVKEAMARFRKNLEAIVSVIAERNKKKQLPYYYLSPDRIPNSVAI
Briefly: 5-LOX product formation in activated PMNL. The format is cell-based. The note with it: for IC50: read-out: IC50, 5-LOX product formation, activated PMNL, A23187 plus arachidonic acid.

Assay [4] deals with T2, 5-LOX. Kind of assay: cell-free 5-LOX activity. The format is biochemical. The conditions noted are these: for IC50: read-out: IC50, human recombinant 5-LOX, arachidonic acid 20 μmol/L.

With `COc1ccc2c(c1)c(CC(=O)O)c(C)n2C(=O)c1ccc(Cl)cc1` [indomethacin], in the assay on COX-1, the 50% inhibitory concentration (IC50) was […].

Turning to `Cc1cc(C(C)(C)C)c(O)c(C)c1CC1=NCCN1` [oxymetazoline], in the assay with 5-LOX [1] (1000 μmol/L), the “5-LOX product formation” value was “failed to inhibit”. For the same molecule, in assay [2] (400 μmol/L), the SPM formation is on record as 130%.

In the case of ginkgolic acid, the IC50 with 5-LOX [1] is 0.2 µM. In addition, the SPM formation in assay [2] (10 μmol/L) is 110%–240%.

As to “3-O-acetyl-11-keto-β-boswellic acid [AKBA]”, the “formation of 12-LOX metabolites” value at 12-LOX is listed as 270%. Besides, the “formation of 15-LOX metabolites” value in the assay on 15-LOX was 210%. The IC50 in the assay with 5-LOX [1] was 3 µM.

`CC(c1cc2ccccc2s1)N(O)C(N)=O` (centres unmarked) [Zileuton, zileuton]: the inhibition at 3 µM on 5-LOX [3] (PMNL, read-out: inhibition of biosynthesis of 5-LOX metabolites, PMNL) stood at 64.1 ± 6.3%. Besides, the “suppression of 5-LOX product formation, cell-free” value at 5-LOX [4] (3 μmol/L) turned out to be 70.7 ± 2.7%.

With `COc1ccc(C(CCc2ccc(O)cc2OC)c2cc3c(c(C)c2O)OC(c2ccc(O)cc2)CC3)cc1` (centres unmarked) [Compound 3], the IC50 at 5-LOX [3] is 0.8 ± 0.14 µM; on 5-LOX [4], 0.3 ± 0.07 µM.

With `COc1cc(O)ccc1CCC(c1ccc(O)cc1)c1c(O)c(C)c2c(c1O)C(=O)CC(c1ccc(O)cc1)O2` (centres unmarked) [Compound 4], the figures for the half-inhibitory concentration (IC50) on 5-LOX [3] and on 5-LOX [4] were 0.46 ± 0.12 µM and 0.9 ± 0.26 µM, respectively.
